By IC50 is commonly meant the concentration at which inhibition is half-maximal. Low readings indicate higher potency, high ones lower potency.

Residue numbers refer to the chain shown, from its start.

Results on 1 molecule are retold here after paper doi:10.1101/2024.12.09.627564, “Cannabinoid inhibition of mechanosensitive K^+ channels” (bioRxiv, 2024).

One data set concerns the target T1, TRAAKA270P (Homo sapiens, UniProt Q9NYG8, A244P).
T1 construct: The transcribed messages encode H. sapiens TRAAK amino acids 1–393; expressed in transfected cells; host or cells: Xenopus laevis oocytes, cRNA injection
T1 sequence (Q9NYG8 1-393 A244P): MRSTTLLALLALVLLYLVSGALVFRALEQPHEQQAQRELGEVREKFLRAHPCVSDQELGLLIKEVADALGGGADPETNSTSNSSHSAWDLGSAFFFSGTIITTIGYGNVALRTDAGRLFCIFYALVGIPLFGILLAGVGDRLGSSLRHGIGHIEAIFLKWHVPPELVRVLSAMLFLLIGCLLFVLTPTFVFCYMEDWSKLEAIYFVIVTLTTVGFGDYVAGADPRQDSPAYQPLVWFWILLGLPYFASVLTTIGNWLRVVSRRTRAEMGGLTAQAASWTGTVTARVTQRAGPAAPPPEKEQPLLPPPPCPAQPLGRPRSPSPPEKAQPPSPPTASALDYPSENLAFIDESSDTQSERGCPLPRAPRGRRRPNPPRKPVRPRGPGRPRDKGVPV
Description: Excised patch recording of TRAAK mutant A270P. It is filed as biochemical. The source says:
(§1) For patch clamp recording from Xenopus oocytes, genes encoding full-length Homo sapiens TRAAK (UniProt Q9NYG8–2), TREK-1 (UniProt O95069), and TREK-2 (UniProt P57789) were codon optimized for eukaryotic expression, synthesized (Genewiz), and cloned into a modified pGEMHE vector using Xho1 and EcoR1 restriction sites. The transcribed messages encode H. sapiens TRAAK amino acids 1–393, TREK-1 amino acids 1–426, or TREK-2 amino acids 1–538 with an additional three amino acids (SNS) at the C terminus. TRAAK mutants were introduced by polymerase chain reaction (PCR). Linearized DNA was transcribed in vitro using T7 polymerase. Complementary RNA (0.1 to 10 ng for TRAAK, TREK-1, TREK-2, and mutants) in 50 nL H2O was injected into Xenopus laevis oocytes extracted from anesthetized frogs. Currents were recorded at 25 °C from inside-out patches excised from oocytes 1 to 5 d after RNA injection. […]
(§2) Patches were evaluated with voltage-step protocols to confirm TRAAK expression and minimal non-specific leak based on reversal potential. Currents were recorded using an Axopatch 200B amplifier (Molecular Devices) at a bandwidth of 1 kHz and digitized with an Digidata 1550B (Molecular Devices) at 100–500 kHz using pClamp10.7 software. […] In an effort to minimize variability associated with differences in resting membrane tension, we targeted patches with low basal curvature and low resting channel activity and ensured measured pressure difference across the patch was as close to zero as possible at rest to prevent mechanical activation of channels. Data were analyzed using Clampfit 10.7, Excel, and Graphpad Prism software. […]
(§3) To avoid cannabinoid absorption to plastic, cannabinoid solutions were made in glass vials and diluted by weight, perfusion was performed using glass tubing pulled from borosilicate glass Pasteur pipettes (Fisherbrand, Cat# 13–678-20C), and recordings were performed in glass chambers. Channel activity was continuously recorded during perfusion steps. […]

Another data set deals with T2, TRAAKA198E (Homo sapiens, UniProt Q9NYG8, A172E).
T2 construct: The transcribed messages encode H. sapiens TRAAK amino acids 1–393; expressed in transfected cells; host or cells: Xenopus laevis oocytes, cRNA injection
T2 sequence (Q9NYG8 1-393 A172E): T1 sequence (Q9NYG8 1-393 A244P) with A172E, P244A
Description: Excised patch recording of TRAAK mutant A198E. Type of data set: biochemical.
Excerpt: as §1, §2, §3

The conditions of data set [1]: as measured in plasma or estimated in brain tissue; cited from earlier work.

On to `C=C(C)[C@@H]1CCC(C)=C[C@H]1c1c(O)cc(CCCCC)cc1O` [CBD, Cannabidiol], for which the IC50 amounted to 1.12 ± 0.04 µM against TRAAKA270P and 0.496 ± 0.026 µM at TRAAKA198E. Further, the “inhibition of channel activity at high concentration” value against TRAAKA270P (10 μM CBD) and at TRAAKA198E (10 μM CBD) was “fully inhibited” each time. Besides, the “fold less sensitive than wild-type TRAAK” value was ~ 8 fold on TRAAKA270P (A270P vs wild-type) and ~ 4 fold on TRAAKA198E (A198E vs wild-type). For the same molecule, in data set [1], the “concentration in treated patients” value was 0.05 to 0.1 µM.
